Data on five molecules can be found in patent EP4664463A1, “COMPUTER-IMPLEMENTED METHOD FOR OLFACTORY PROPERTY PREDICTION” (Givaudan SA, priority 2024, dated 2025).

The EC50 is the concentration needed to bring the measured effect to its halfway point.

Data set [1] has as its system OR7A17. In words: Luciferase dose-response, wild-type vs changed C-terminus (SEQ ID NO: 86). It counts as cell-based, human. From the text: (§1) To create an expression plasmid, an OR coding sequence fused at the end of TM7 to the desired C-terminus sequence was synthesized by a DNA synthesis service provider (BioCat GmbH, Germany) and inserted into pcDNA3.1(+) (Invitrogen, MA, USA) downstream of the CMV promoter sequence (SEQ ID NO: 82) using BamHI and Notl restriction sites. All the synthetic OR nucleotide sequences described below in Examples 1-15 further contained at their N-terminus a nucleotide sequence encoding a signal peptide (mmLucy-FLAG-rho, SeQ ID NOs: 80, 81) and at the C-terminus the bgh terminator sequence (SEQ ID NO: 83). All the OR expression plasmids also contain a Kozak sequence (GCCACC) between the BamHI restriction site and the start codon of the signal peptide. These plasmids thus contain a constitutively expressed OR gene.
(§2) Thus, optimal improvement of activity is not achieved by the approach of just using the parent C-terminus and mutating it towards consensus, but rather by exchanging the C-terminal sequence with the optimized sequence described herein.

Data set [2] deals with T1, OR7A17 (Homo sapiens, UniProt O14581).
T1 construct: expressed in transfected cells; host or cells: HEK293T cells stably expressing human RTP1S (V227I) and RTP2 (L220R)
Described as above. The format is cell-based. As to conditions: wild-type.
Excerpt: as §1, §2
T1 sequence (O14581 whole entry): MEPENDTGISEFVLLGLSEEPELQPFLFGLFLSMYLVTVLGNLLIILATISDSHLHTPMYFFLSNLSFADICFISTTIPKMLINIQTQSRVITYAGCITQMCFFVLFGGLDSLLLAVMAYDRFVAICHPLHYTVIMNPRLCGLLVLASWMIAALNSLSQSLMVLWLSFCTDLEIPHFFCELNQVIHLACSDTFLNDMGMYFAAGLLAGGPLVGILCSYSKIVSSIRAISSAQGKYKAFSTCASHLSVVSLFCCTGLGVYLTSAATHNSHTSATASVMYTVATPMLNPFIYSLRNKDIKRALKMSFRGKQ

Data set [3] addresses T2, OR7A17 (Homo sapiens, UniProt O14581, D296E/I297V/R299D).
T2 construct: expressed in transfected cells; host or cells: HEK293T cells stably expressing human RTP1S (V227I) and RTP2 (L220R)
The data set is described as above. The format is cell-based.
Excerpt: as §1, §2

Data set [4] concerns the target T3, OR7A17 (Homo sapiens, UniProt O14581).
T3 construct: expressed in transfected cells; host or cells: HEK293T cells stably expressing human RTP1S (V227I) and RTP2 (L220R) (general approach)
In words: Detection of Ambrofix spiked into Geranium oil on OR7A17 with SEQ ID 221. It counts as cell-based.
T3 sequence (O14581 with tags, fused parts or gaps): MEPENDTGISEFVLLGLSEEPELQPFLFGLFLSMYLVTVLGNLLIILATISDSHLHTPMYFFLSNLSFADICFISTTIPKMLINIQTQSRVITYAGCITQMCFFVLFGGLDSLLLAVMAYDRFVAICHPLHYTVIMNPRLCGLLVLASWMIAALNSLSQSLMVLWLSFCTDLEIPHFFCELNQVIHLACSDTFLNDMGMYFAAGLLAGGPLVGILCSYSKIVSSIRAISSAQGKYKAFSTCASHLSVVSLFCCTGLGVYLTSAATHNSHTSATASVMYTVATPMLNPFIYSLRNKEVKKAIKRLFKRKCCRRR
Description: These mixtures were tested with OR7A17 with a C-terminal domain of SEQ ID 221 (a DNA sequence encoding the modified receptor is included as SEQ ID NO: 611) as described in example 20.

In data set [5] the target is T4, OR56A4 (Homo sapiens, UniProt Q8NGH8).
T4 construct: expressed in transfected cells; host or cells: HEK293T stably expressing human RTP1S(V227I) and RTP2(L220R)
T4 sequence (Q8NGH8 1-313): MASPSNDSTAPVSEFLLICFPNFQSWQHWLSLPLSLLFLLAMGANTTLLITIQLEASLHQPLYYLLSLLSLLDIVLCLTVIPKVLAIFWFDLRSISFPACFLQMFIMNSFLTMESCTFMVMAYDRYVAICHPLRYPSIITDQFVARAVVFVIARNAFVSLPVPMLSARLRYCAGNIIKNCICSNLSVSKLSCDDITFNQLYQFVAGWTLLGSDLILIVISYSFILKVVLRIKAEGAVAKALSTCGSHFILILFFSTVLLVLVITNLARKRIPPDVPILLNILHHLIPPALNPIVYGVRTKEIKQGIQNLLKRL
In words: cell-based. The format is cell-based.
Excerpt: as §1
(§3) Activation of OR56A4 by acids of different chain length was further tested. […] Replacing the wild-type with the C-terminal sequence of the functional OR51 E1 did reduce activity. However, using the optimized sequence form Examples 1-5 led to a strong signal and much lower detection threshold upon addition of all three acids.

For data set [6], the target named is T5, OR56A4 (Homo sapiens, UniProt Q8NGH8, T299N).
T5 construct: expressed in transfected cells; host or cells: HEK293T stably expressing human RTP1S(V227I) and RTP2(L220R)
In words: cell-based. The format is cell-based.
Excerpt: as §1, §3

Data set [7] relates to OR56A4. Put plainly: cell-based. The format is cell-based, human.
Excerpt: as §1, §3

Data set [8] relates to library of all class I OR with C-terminal domain RNKQIRDALKRLLKRKCCRRR (SEQ ID NO: 741). Put plainly: Screening of the library of all class I OR with carboxylic acid ligands (luciferase). The format is cell-based, human. As to conditions: full class I OR library (n = 77). On the procedure:
All human class I OR and all key genetic variants of these OR were synthesized with a sequence coding for the identical C-terminal domain […] (SEQ ID NO: 741) in the vector pcDNA3.1(+) to generate a library of all class I OR with an improved C-terminal domain. Class I OR library members
Parallel transfection experiments were conducted with all these plasmids (n = 77, SEQ ID NO: 760, OR51F1 was excluded due to poor plasmid yield) and cells expressing the different OR were stimulated with one given ligand at a time. In total 10 different carboxylic acids ligands were tested on the full library of class I receptors.

The target of the next data set is T6, OR2T4 (Homo sapiens, UniProt Q8NH00, D328E/G331D/M330K).
T6 construct: expressed in transfected cells; host or cells: HEK293T cells stably expressing human RTP1S (V227I) and RTP2 (L220R)
T6 sequence (Q8NH00 with tags, fused parts or gaps D328E/M330K/G331D): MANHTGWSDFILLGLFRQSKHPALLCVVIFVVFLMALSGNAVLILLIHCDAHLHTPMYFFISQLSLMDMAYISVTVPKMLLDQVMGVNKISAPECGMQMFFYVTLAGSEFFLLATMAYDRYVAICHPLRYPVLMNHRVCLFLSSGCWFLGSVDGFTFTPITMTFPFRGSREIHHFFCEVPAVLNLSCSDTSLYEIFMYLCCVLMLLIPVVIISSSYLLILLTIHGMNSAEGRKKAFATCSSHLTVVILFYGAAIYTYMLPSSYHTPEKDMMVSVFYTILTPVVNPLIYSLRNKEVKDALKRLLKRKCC
Put plainly: cell-based. It counts as cell-based. As to conditions: OR2T4 with SEQ ID NO: 86.
Excerpt: as §1

For data set [9], the target named is T7, OR2T11 (Homo sapiens, UniProt Q8NH01).
T7 construct: expressed in transfected cells; host or cells: HEK293T stably expressing human RTP1S(V227I) and RTP2(L220R)
In words: cell-based. It counts as cell-based.
Excerpt: as §1
T7 sequence (Q8NH01 with tags, fused parts or gaps): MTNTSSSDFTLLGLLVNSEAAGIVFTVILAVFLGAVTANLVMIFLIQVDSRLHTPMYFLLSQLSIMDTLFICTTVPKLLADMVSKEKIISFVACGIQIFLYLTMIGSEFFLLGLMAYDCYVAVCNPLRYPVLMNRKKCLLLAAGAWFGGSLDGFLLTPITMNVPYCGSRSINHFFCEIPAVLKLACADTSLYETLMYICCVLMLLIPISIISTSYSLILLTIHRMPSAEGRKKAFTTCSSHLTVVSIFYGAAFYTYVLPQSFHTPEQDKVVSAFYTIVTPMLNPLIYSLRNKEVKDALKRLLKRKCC

In data set [10] the target is T8, OR2T11 (Homo sapiens, UniProt Q8NH01).
T8 construct: expressed in transfected cells; host or cells: HEK293T stably expressing human RTP1S(V227I) and RTP2(L220R)
Put plainly: cell-based. It counts as cell-based.
Excerpt: as §1
T8 sequence (Q8NH01 whole entry): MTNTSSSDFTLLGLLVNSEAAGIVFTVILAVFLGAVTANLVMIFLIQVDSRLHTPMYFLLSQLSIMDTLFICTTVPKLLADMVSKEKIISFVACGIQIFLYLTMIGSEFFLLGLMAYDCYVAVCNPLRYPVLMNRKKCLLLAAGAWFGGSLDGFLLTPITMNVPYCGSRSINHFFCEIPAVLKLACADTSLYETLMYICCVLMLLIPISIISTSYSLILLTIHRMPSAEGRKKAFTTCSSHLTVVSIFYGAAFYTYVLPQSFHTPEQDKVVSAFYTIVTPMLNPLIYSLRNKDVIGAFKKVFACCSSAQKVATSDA
This is another data set of the same source.

For data set [11], the system named is OR2T11. In words: cell-based. It counts as cell-based, human.
Excerpt: as §1

[12] abbreviates: changed C-term SEQ ID NO: 86, read-out: Potency EC50.

Where “and” joins values, the source holds several entries; their conditions need not be identical. Equal values may be shown once.

T2 sequence (O14581 with tags, fused parts or gaps D296E/I297V/R299D): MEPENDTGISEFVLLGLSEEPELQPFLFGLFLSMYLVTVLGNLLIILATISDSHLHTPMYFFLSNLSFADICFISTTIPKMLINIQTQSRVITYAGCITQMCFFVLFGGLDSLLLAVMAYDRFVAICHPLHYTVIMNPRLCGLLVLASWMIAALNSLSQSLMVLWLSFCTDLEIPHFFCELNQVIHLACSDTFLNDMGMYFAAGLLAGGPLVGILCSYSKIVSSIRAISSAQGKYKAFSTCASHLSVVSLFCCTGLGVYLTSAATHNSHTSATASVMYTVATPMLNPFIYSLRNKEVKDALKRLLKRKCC
T5 sequence (Q8NGH8 with tags, fused parts or gaps T299N): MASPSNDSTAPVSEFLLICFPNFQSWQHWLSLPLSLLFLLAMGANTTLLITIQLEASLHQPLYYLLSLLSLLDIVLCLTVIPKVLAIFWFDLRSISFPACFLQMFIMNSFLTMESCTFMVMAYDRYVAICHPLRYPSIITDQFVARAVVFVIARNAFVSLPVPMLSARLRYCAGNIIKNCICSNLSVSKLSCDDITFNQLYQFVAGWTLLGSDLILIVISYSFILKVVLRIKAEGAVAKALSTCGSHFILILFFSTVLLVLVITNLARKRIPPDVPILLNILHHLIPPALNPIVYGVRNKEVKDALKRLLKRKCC

As for `CC1(C)CCCC2(C)C1CCC1(C)OCCC12` (stereo not drawn) [Ambrofix], in the data set on OR7A17 [1], the Comments on efficacy was 2-fold lower maximal induction for wild-type; the Fold-improvement potency turned out to be 4.2; the Fold-improvement threshold was 18 and 18.4. In the data set with OR7A17 [1] (OR7A17 C-terminus altered towards consensus), the “lowering of detection threshold vs wild-type” value is on record as 3 fold. Besides, the “detection threshold for two-fold induction” value in the data set with OR7A17 [1] (OR7A17 C-terminus altered towards consensus (5 amino acids)) amounted to 0.6 µM. For the same molecule, the “Detection threshold; concentration for 2-fold induction” value on OR7A17 [2] was found to be 1.9 µM. Also, the EC50 at OR7A17 [2] (read-out: Potency EC50) came out at 5.6 µM. On OR7A17 [3] (setting [12]), the EC50 was determined as 1.3 µM. On OR7A17 [3] (changed C-term. SEQ ID NO: 86), the “Detection threshold; concentration for 2-fold induction” value was found to be 0.1 µM. Besides, at OR7A17 [4], the “detectable concentration of target ingredient against a complex matrix” value was not above 0.1%.

On to `CCCCCCCCCCC(=O)O` [Undecanoic acid], for which the “Detection threshold; concentration for 2-fold induction” value at OR56A4 [5] was 43 µM; on OR56A4 [6], 3.2 µM. The “activation of wild-type OR56A4” value at OR56A4 [5] (wild-type) is “activated at high concentration”. Also, the half-maximal effective concentration (EC50) on OR56A4 [5] (wild-type, read-out: Potency EC50) is 114 µM; on OR56A4 [6] (setting [12]), 22 µM. This molecule also gave a Fold-improvement potency in the data set on OR56A4 [7] of 5.1. The molecule also had a Fold-improvement threshold in the data set with OR56A4 [7] of 13.5.

Consider `CC(C)CC(=O)O` [3-Methylbutanoic acid], for which, in data set [8], the “Activated OR and OR variants” value is given as “No activation observed”.

For the molecule `CCC=C(C)C(=O)O` [2-Methyl-2-pentenoic acid], in [8], the “Activated OR and OR variants” value is listed as “No activation observed”.

In the case of `C=CCSSCC=C` [Diallyl disulfide], the “ligands identified in screening of sulfur odorants” value at OR2T4 was “good ligands”. This molecule yielded an EC50 at OR2T11 [9] (Potency EC50, changed C-term SEQ ID NO: 86) of 6.51 µM. On OR2T11 [9] (changed C-term. SEQ ID NO: 86), the “Detection threshold; concentration for 2-fold induction” value was found to be 2.03 µM. For the same molecule, the EC50 on OR2T11 [10] (Potency EC50, wild-type) was more than 200 µM. For the same molecule, on OR2T11 [10] (wild-type), the “Detection threshold; concentration for 2-fold induction” value is more than 200 µM. Besides, in the data set on OR2T11 [11], the Comments on efficacy entry is given as “No induction wild-type”, the Fold-improvement potency is given as >>40 and the Fold-improvement threshold is more than 100.
